According to patent US20230192705A1, “SHP2 INHIBITORS, COMPOSITIONS AND USES THEREOF” (Betta Pharmaceuticals Co., Ltd, priority 2020, published 2023):
Read-outs that look alike come from different tables or passages of the source.

Legend:
[1] = test system: leukemia MV-4-11 cell; test: Cell proliferation assay (CellTiter-Glo), MV-4-11; format: cell-based; settings: Homo sapiens, MV4-11, MV-4-11, 120 hrs, CTG, read-out: Compound on MV-4-11 cell IC50
Procedure: (§1) The effects of the compounds on the proliferation of leukemia MV-4-11 cell and lung cancer NCI-H358 cell were evaluated by in vitro cell test. The assay used in this study was the CELL TITER-GLO (CTG) luminescence assay, which can detect the number of living cells by quantitative determination of ATP. Because ATP is involved in a variety of enzymatic reactions in vivo and is an indicator of the metabolism of living cells, its content can directly reflects the number and state of cells. During the experiment, Celltiter-Glo™ reagent was added to the cell culture medium to measure the luminescence value. The luminescence value was proportional to the amount of ATP, which in turn was positively correlated with the number of living cells. Therefore, ATP content can be used to detect cell viability.
A bottle of MV-4-11 cells in logarithmic growth phase was taken, the cells were collected, centrifuged, resuspend, counted, and then inoculated into 96-well Microplate (Corning #3917), with 4000 cells inoculated in each well. The plates were placed in an incubator at 37° C. and 5% CO2 for 24 hrs culture, and the compounds of the invention were added for conducting.
(§2) An appropriate amount of the compound of the invention was taken for cell treatment, and the final concentration of the compound from high to low was 1000 nM, 333.3 nM, 111.1 nM, 37.04 nM, 12.35 nM, 4.115 nM, 1.372 nm, 0.4572 nM, 0.1524 nM, 0 nM, respectively. The orifice plate was cultured in an incubator at 37° C. and 5% CO2. Only adding medium without adding cell hole was set as blank group. Compound concentration of 0 nM group was zero control group.
After cultured for 120 hrs, MV-4-11 cells were added with 50 μL CellTiter-Glo® Luminescent cell viability assay solution in each well, gently shaken for 2 mins, and incubated at room temperature for 10 mins. The detection values of each well were read on the multi-functional microplate reader.
(§3) The inhibition rate is calculated according to the luminous value reading,
(§4) Inhibition rate %=(1−(administration group value−blank group value)/(control group value−blank group value)*100
(§5) The log (inhibitor) vs. response variable slope of GraphPad Prism was used to fit the dose-response curve and calculate the IC50 of compounds inhibiting cell proliferation.

[2] = test system: lung cancer NCI-H358 cell; test: Cell proliferation assay (CellTiter-Glo), NCI-H358; format: cell-based; settings: Homo sapiens, NCI-H358, 96 hrs, CTG, read-out: Compound on NCI-H358 cell IC50
Procedure: as §1
A bottle of NCI-H358 cells in logarithmic growth phase was taken, the cells were digested and resuspend, counted, and then the cell density was adjusted. After that, the cells were inoculated into a 96-well Ultra-Low Attachment Microplate (Corning #3474), 2000 cells were inoculated in each well, and the well plate was placed in an incubator at 37° C. and 5% CO2, and the compounds of the invention were added for conducting.
as §2
NCI-H358 cells were cultured for 96 hrs, then 50 μL CellTiter-Glo® Luminescent cell viability assay solution was added to each well, and the cells were gently shaken for 2 mins, and incubated at room temperature for 10 mins. The cell reaction system was transferred to 96-well Microplate (Corning #3917). The detection values of each well were read on the multi-functional microplate reader.
as §3, §4, §5

[3] = molecular target: T1, SHP2 (Homo sapiens, UniProt Q06124); test: SHP2 allosteric inhibitor enzyme activity assay (DiFMUP fluorescence); format: biochemical
T1 sequence (Q06124 1-593): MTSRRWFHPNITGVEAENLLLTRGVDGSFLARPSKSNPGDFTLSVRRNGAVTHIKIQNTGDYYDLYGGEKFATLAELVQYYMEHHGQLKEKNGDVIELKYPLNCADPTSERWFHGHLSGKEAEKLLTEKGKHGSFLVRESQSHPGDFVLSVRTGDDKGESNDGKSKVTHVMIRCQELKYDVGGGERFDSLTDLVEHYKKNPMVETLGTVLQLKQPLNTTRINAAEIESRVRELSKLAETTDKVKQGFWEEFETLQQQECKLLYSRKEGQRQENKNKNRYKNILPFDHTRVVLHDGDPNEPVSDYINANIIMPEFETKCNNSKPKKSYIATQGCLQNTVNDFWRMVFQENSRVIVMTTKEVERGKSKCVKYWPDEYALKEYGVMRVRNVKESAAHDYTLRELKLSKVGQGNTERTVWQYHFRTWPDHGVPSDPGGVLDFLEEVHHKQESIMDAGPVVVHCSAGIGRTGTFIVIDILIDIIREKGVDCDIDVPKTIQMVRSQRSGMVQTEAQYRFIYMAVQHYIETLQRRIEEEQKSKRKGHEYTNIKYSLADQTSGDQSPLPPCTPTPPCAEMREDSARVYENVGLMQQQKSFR
Procedure, shortened: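 SHP2 activated by 0.5 μM IRS1_pY1172(dPEG8)pY1222 peptide, 0.2 ng enzyme per well, 1 h at room temperature with compound (1 μM top, 3-fold series), then DiFMUP substrate 1 h. Buffer: 60 mM HEPES, 75 mM NaCl, 75 mM KCl, 0.05% BRIJ-35, 1 mM EDTA, 5 mM DTT. Fluorescence ex 340/em 450 nm; IC50 by variable-slope fit.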

| SMILES | IC50 ([1]; numeric values) [nM] | IC50 ([2]; numeric values) [nM] | IC50 ([3]; class symbols) [nM] | IC50 ([1]; class symbols) [nM] | IC50 ([2]; class symbols) [nM] | IC50 ([3]; numeric values) [nM] |
| --- | --- | --- | --- | --- | --- | --- |
| N[C@@H]1c2ccccc2CC12CCN(c1nn3cc(C4CC4)nc3s1)CC2 [Comparative compound 2, reference compound] | 454 | 1810 | – | – | – | – |
| N[C@@H]1c2ccccc2CC12CCN(c1nc3[nH]nc(C4(c5cccc(Cl)c5)CC4)c3c(=O)[nH]1)CC2 [Example 4, (S)-6-(1-amino-1,3-dihydrospiro[indene-2,4′-piperidin]-1′-yl)-3-(1-(3-chlorophenyl)cyclopropyl)-1,5-dihydro-4H-pyrazolo[3,4-d]pyrimidin-4-one] | – | – | ≤ 20 | ≤ 20 | ≤ 20 | – |
| Cc1cccc(C2(c3n[nH]c4nc(N5CCC6(CC5)Cc5ccccc5[C@H]6N)[nH]c(=O)c34)CC2)c1 [Example 10, (S)-6-(1-amino-1,3-dihydrospiro[indene-2,4′-piperidin]-1′-yl)-3-(1-(m-tolyl)cyclopropyl)-1,5-dihydro-4H-pyrazolo[3,4-d]pyrimidin-4-one] | – | – | – | ≤ 20 | ≤ 20 | 0.9 |
| COc1ccccc1C1(c2n[nH]c3nc(N4CCC5(CC4)Cc4ccccc4[C@H]5N)[nH]c(=O)c23)CC1 [Example 17, (S)-6-(1-amino-1,3-dihydrospiro[indene-2,4′-piperidin]-1′-yl)-3-(1-(2-methoxyphenyl)cyclopropyl)-1,5-dihydro-4H-pyrazolo[3,4-d]pyrimidin-4-one] | – | – | ≤ 20 | 20 to 60 | 20 to 60 | – |
| COc1cccc(C2(c3n[nH]c4nc(N5CCC6(CC5)Cc5ccccc5[C@H]6N)[nH]c(=O)c34)CC2)c1 [Example 18, (S)-6-(1-amino-1,3-dihydrospiro[indene-2,4′-piperidin]-1′-yl)-3-(1-(3-methoxyphenyl)cyclopropyl)-1,5-dihydro-4H-pyrazolo[3,4-d]pyrimidin-4-one] | – | – | ≤ 20 | ≤ 20 | ≤ 20 | – |
| N[C@@H]1c2ccccc2CC12CCN(c1nc3[nH]nc(C4=CCOc5cc(F)ccc54)c3c(=O)[nH]1)CC2 [Example 115, (S)-6-(1-amino-1,3-dihydrospiro[indene-2,4′-piperidin]-1′-yl)-3-(7-fluoro-2H-chromen-4-yl)-1,5-dihydro-4H-pyrazolo[3,4-d]pyrimidin-4-one] | 1.4 | 1.2 | ≤ 20 | – | – | – |
| N#Cc1ccc2c(c1)CCC=C2c1n[nH]c2nc(N3CCC4(CC3)Cc3ccccc3[C@H]4N)[nH]c(=O)c12 [Example 122, (S)-5-(6-(1-amino-1,3-dihydrospiro[indene-2,4′-piperidin]-1′-yl)-4-oxo-4,5-dihydro-1H-pyrazolo[3,4-d]pyrimidin-3-yl)-7,8-dihydronaphthalene-2-carbonitrile] | 2.1 | 1.1 | – | – | – | 1.1 |
| N[C@@H]1c2ccccc2CC12CCN(c1nc3[nH]nc(C4=CCOc5c(F)cccc54)c3c(=O)[nH]1)CC2 [Example 124] | 1.7 | 1.6 | – | – | – | 0.48 |
| N[C@@H]1c2ccccc2CC12CCN(c1nc3[nH]nc(C4=CCCCc5ccccc54)c3c(=O)[nH]1)CC2 [Example 125] | 1.9 | 1.1 | – | – | – | 1.6 |
| N[C@@H]1c2ccccc2CC12CCN(c1nc3[nH]nc(C4=CCCc5nc(Cl)ccc54)c3c(=O)[nH]1)CC2 [Example 139, (S)-6-(1-amino-1,3-dihydrospiro[indene-2,4′-piperidin]-1′-yl)-3-(2-chloro-7,8-dihydroquinolin-5-yl)-1,5-dihydro-4H-pyrazolo[3,4-d]pyrimidin-4-one] | 2.8 | 2 | – | – | – | 1.6 |
| CC1(C)C=C(c2n[nH]c3nc(N4CCC5(CC4)Cc4ccccc4[C@H]5N)[nH]c(=O)c23)c2ccc(C(F)(F)F)nc2C1 [Example 144, (S)-6-(1-amino-1,3-dihydrospiro[indene-2,4′-piperidin]-1′-yl)-3-(7,7-dimethyl-2-(trifluoromethyl)-7,8-dihydroquinolin-5-yl)-1,5-dihydro-4H-pyrazolo[3,4-d]pyrimidin-4-one] | – | – | ≤ 20 | 20 to 60 | 20 to 60 | – |
| C#Cc1cccc(C2(c3n[nH]c4nc(N5CCC6(CC5)Cc5ccccc5[C@H]6N)[nH]c(=O)c34)CC2)c1 [Example 222, (S)-6-(1-amino-1,3-dihydrospiro[indene-2,4′-piperidin]-1′-yl)-3-(1-(3-ethynylphenyl)cyclopropyl)-1,5-dihydro-4H-pyrazolo[3,4-d]pyrimidin-4-one] | – | – | ≤ 20 | ≤ 20 | ≤ 20 | – |
| CC(=O)c1cccc(C2(c3n[nH]c4nc(N5CCC6(CC5)Cc5ccccc5[C@H]6N)[nH]c(=O)c34)CC2)c1 [Example 223, (S)-3-(1-(3-acetylphenyl)cyclopropyl)-6-(1-amino-1,3-dihydrospiro[indene-2,4′-piperidin]-1′-yl)-1,5-dihydro-4H-pyrazolo[3,4-d]pyrimidin-4-one] | 2.8 | 11 | ≤ 20 | – | – | – |
